Assay results from paper PMC12527173, “Cytotoxic, anti-inflammatory, antioxidant, and anti-glyoxalase-I evaluation of chelating substances: In silico and in vitro study” (PLOS One, 2025).
Read-outs that look alike come from different tables or passages of the source. Values belong to the compound of their own block, whether it stands above or below them.

Columns and labels:
[1] = molecular target: T1, human recombinant Glo-I enzyme (rhGlo-I) (Homo sapiens, UniProt Q04760); assay: Glyoxalase-I (Glo-I) enzyme inhibition assay; assay type: biochemical; conditions: for activity against Glo-I (in words): in vitro, compounds classed as inactive
T1 construct: N-terminal Met and 6-His tag (N); purchased R&D Systems; host or cells: E. coli
T1 sequence (Q04760 2-184 limits assumed): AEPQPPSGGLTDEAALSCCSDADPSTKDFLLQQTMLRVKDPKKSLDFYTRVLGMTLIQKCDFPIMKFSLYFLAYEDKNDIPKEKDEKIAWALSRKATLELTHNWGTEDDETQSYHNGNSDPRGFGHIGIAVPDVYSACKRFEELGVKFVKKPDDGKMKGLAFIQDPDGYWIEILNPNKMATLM
Description: Solvents and chemicals were procured from Sigma-Aldrich Co. and Acros (ThermoFisher Scientific, New Jersey, USA). […] The enzyme was obtained from R&D Systems® Corporation in the USA. Synthetic compounds were tested for their inhibitory effects on the enzyme using a 10 mM DMSO stock concentration in triplicates. The manufacturer’s protocol from R & D Systems, Inc. in Minneapolis, MN, USA was followed for the in vitro experiments. The reconstituted Glo-I enzyme (0.5 mg/mL) was thawed after being stored at −70°C in sterile deionized water. […] The monitoring was done at a wavelength of 240 nm for 200 seconds at 37°C. The substrate mixture was freshly concocted with a concentration of 100 mM glutathione and 100 mM methylglyoxal (MG) in assay buffer containing 0.5 M sodium phosphate dibasic/monobasic. It was then left undisturbed at room temperature for 15 minutes […]. The selected compounds for investigation are subsequently produced in testing concentration ranges using a 0.1 M solution of sodium phosphate dibasic/monobasic with a pH range of 7–7.2. The blank contained an assay buffer with MG substrate. The test compounds were combined with human recombinant Glo-I (50 µM) in a 96-well plate to determine their kinetic behavior.

[2] = system: T47D breast cancer cell line; assay: SRB cytotoxicity assay, T47D; assay type: cell-based; conditions: Homo sapiens, 72 h incubation, n = 12, read-out: Cytotoxicity (as of %Control) IC50 value T47D mammary malignancy
Description: (§1) The cancer cell lines were cultured in DMEM supplemented with 10% FBS (Bio Whittaker, Verviers, Belgium), HEPES Buffer (10 mM), gentamicin (50 µg/mL), L-glutamine (100 μg/mL), streptomycin ([…]), penicillin (100 µg/mL), and 4-(2-hydroxyethyl)-1-piperazineethanesulfonic acid (HEPES) Buffer (Sigma, St. Luis, MO, USA). The Sulforhodamine B used was obtained from Santa Cruz Biotechnology, Inc. in Texas, USA. […] Periodontal ligament fibroblasts (PDL) were utilized to assess specific cytotoxicity. Cancer cell lines that have survived offer several benefits. They provide a consistent and uninterrupted source of cells, so bypassing any ethical concerns related to the use of human tissue. Additionally, they are cost-effective. The cytotoxicity levels were assessed using the Sulforhodamine B (SRB) colorimetric assay, provided by Santa Cruz Biotechnology, Inc. in Texas, USA. The Spectro Scan 80D UV-VIS spectrophotometer, manufactured by Sedico Ltd. in Nicosia, Cyprus, was employed for this cytotoxicity screening. The cells were co-incubated with substances or a reference agent at various doses ranging from 5 to 200 μg/mL. […] The reduction in cell viability was analyzed by plotting Dose-response curves and expressing the data as a percentage of the control optical density. The IC50 values were obtained using regression analysis.

[3] = SRB cytotoxicity assay, normal PDL fibroblasts; assay type: cell-based; conditions: normal periodontal ligament (PDL) fibroblasts, 72 h incubation, 0.1–200 µM range, read-out: Cytotoxicity (as of %Control) IC50 value PDL fibroblasts
Description: as §1

[4] = system: Breast cancer cell line MCF7; assay: SRB cytotoxicity assay, MCF7; assay type: cell-based; conditions: Homo sapiens, 72 h incubation, n = 12, read-out: Cytotoxicity (as of %Control) IC50 value MCF7 mammary malignancy
Description: as §1

[5] = system: HeLa uterine cervix adenocarcinoma cell line; assay: SRB cytotoxicity assay, HeLa; assay type: cell-based; conditions: Homo sapiens, 72 h incubation, n = 12, read-out: Cytotoxicity (as of %Control) IC50 value Hela cervix malignancy
Description: as §1

[6] = system: HT-29 colorectal cancer cell line; assay: SRB cytotoxicity assay, HT29; assay type: cell-based; conditions: Homo sapiens, 72 h incubation, n = 12, read-out: Cytotoxicity (as of %Control) IC50 value HT29
Description: as §1

[7] = system: PANC1 pancreatic cell line; assay: SRB cytotoxicity assay, PANC1; assay type: cell-based; conditions: Homo sapiens, PANC-1, 72 h incubation, n = 12, read-out: Cytotoxicity (as of %Control) IC50 value PANC1
Description: as §1

[8] = system: A375 human skin cancer cell line; assay: SRB cytotoxicity assay, A375; assay type: cell-based; conditions: A-375, 72 h incubation, n = 12, read-out: Cytotoxicity (as of %Control) IC50 value A375 skin melanoma
Description: as §1

[9] = system: A549 lung cancer cell line; assay: SRB cytotoxicity assay, A549; assay type: cell-based; conditions: Homo sapiens, 72 h incubation, n = 12, read-out: Cytotoxicity (as of %Control) IC50 value A549 lung malignancy
Description: as §1

[10] = system: SW620 colorectal cancer cell line; assay: SRB cytotoxicity assay, SW620; assay type: cell-based; conditions: Homo sapiens, SW-620, 72 h incubation, n = 12, read-out: Cytotoxicity (as of %Control) IC50 value SW620
Description: as §1

[11] = system: SW480 colorectal cancer cell line; assay: SRB cytotoxicity assay, SW480; assay type: cell-based; conditions: Homo sapiens, 72 h incubation, n = 12, read-out: Cytotoxicity (as of %Control) IC50 value SW480
Description: as §1

[12] = system: HCT116 colorectal cancer cell line; assay: SRB cytotoxicity assay, HCT116; assay type: cell-based; conditions: Homo sapiens, HCT-116, 72 h incubation, n = 12, read-out: Cytotoxicity (as of %Control) IC50 value HCT116
Description: as §1

[13] = system: Human PC3 prostate cancer cell line; assay: SRB cytotoxicity assay, PC3; assay type: cell-based; conditions: 72 h incubation, n = 12, read-out: Cytotoxicity (as of %Control) IC50 value PC3 prostate malignancy
Description: as §1

[14] = system: CACO2 colorectal cancer cell line; assay: SRB cytotoxicity assay, CACO2; assay type: cell-based; conditions: Homo sapiens, Caco-2, 72 h incubation, n = 12, read-out: Cytotoxicity (as of %Control) IC50 value CACO2
Description: as §1

[15] = system: LPS-primed RAW 264.7 murine macrophages (nitrite / iNOS); assay: Anti-inflammatory (nitrite) determination in LPS-primed macrophages; assay type: cell-based; conditions: Mus musculus, RAW264.7; LPS-primed RAW 264.7; nitrite by Griess; 24 h; n = 12; read-out: iNOS- IC50 value
Description: The RAW 264.7 mouse macrophage cell line (ATCC® TIB-71) was cultivated in high glucose DMEM with 10% foetal bovine serum (FBS), 100 U/mL penicillin, 100 μg/mL streptomycin, and 100 μg/mL L-glutamate. The cells were incubated at 37°C in a humidified environment with 95% air and 5% CO2. Confluent macrophages (2 x 10^5/well) were cultured with lipopolysaccharide (LPS; 20 μg/mL; Sigma, St. Luis, MO, USA) and indomethacin (25–200 μg/mL) as the positive control, along with various concentrations (5–200 μg/mL) of treatment compounds. The cells were incubated for 24 hours. 100 μL of Griess reagent were combined with 100 μL portions of cell culture medium and left to incubate at room temperature for 10 minutes. The absorbance at a wavelength of 550 nm was measured using a microplate reader, namely the Spectro Scan 80D UV-VIS spectrophotometer manufactured by Sedico Ltd. in Nicosia, Cyprus. The nitrite concentration was assessed by comparing it to a standard curve of sodium nitrite. A cytotoxicity protocol using SRB was conducted to assess the impact of the test substances under study on RAW 264.7 viability.

[16] = read-out: Trial one (%inhibtion)
[17] = read-out: Trial three (%inhibtion)
[18] = read-out: Trial two (%inhibtion)

Compound: Cc1c(O)c(=O)ccn1C [3-Hydroxy-1,2-dimethyl-4(1h)-pyridone]
activity against Glo-I (in words) [1]: inactive

Compound: [O-][Cl+2]([O-])O [Chloric acid]
activity against Glo-I (in words) [1]: inactive

Compound: CC(=NO)C(C)=NO [Dimethylglyoxime]
activity against Glo-I (in words) [1]: inactive

Compound: COc1cccc2c1C(=O)c1c(O)c3c(c(O)c1C2=O)C[C@@](O)(C(=O)CO)C[C@@H]3O[C@H]1C[C@H](N)[C@H](O)[C@H](C)O1 [Doxorubicin, reference compound]
IC50 [6]: 6 nM
IC50 [2]: 20 nM
IC50 [7]: 7170 ± 1070 nM
IC50 [8]: 280 ± 140 nM
IC50 [9]: 280 nM
IC50 at 72 h [3]: > 200000 nM
IC50 [4]: 4810 ± 210 nM
IC50 [10]: 650 ± 30 nM
IC50 [5]: 5560 ± 80 nM
IC50 [11]: 10 nM
IC50 [12]: 920 ± 30 nM
IC50 [13]: 130 ± 10 nM
IC50 [14]: 920 ± 30 nM

Compound: Oc1cc(O)c2c(c1)O[C@H](c1cc(O)c(O)c(O)c1)[C@@H](O)C2 [Gallocatechin]
activity against Glo-I (in words) [1]: inactive

Compound: O=C(CCCCCCC(=O)Nc1ccccc1)NO [SAHA, reference compound]
activity against Glo-I (in words) [1]: do not demonstrate efficacy against Glo-I

Compound: COc1ccc(C[C@@H](C)[C@@H](C)Cc2ccc(OC)c(OC)c2)cc1OC [Terameprocol]
activity against Glo-I (in words) [1]: inactive

Compound: O=c1cccccc1O [Tropolon]
activity against Glo-I (in words) [1]: inactive

Compound: CC(c1cc2ccccc2s1)N(O)C(N)=O (stereo not shown) [Zileuton, reference compound]
activity against Glo-I (in words) [1]: do not demonstrate efficacy against Glo-I

Compound: CC(=O)Nc1nnc(S(N)(=O)=O)s1 [acetazolamide, reference compound]
activity against Glo-I (in words) [1]: did not exhibit any action against Glo-I

Second part, led by results:

activity against Glo-I (in words) [1]: inactive
Compound: O=C(/C=C/c1ccc(O)c(O)c1)O[C@@H]1[C@H](O)C[C@@](O)(C(=O)O)C[C@H]1OC(=O)/C=C/c1ccc(O)c(O)c1 [3,4-diaffeoylquinic acid]

activity against Glo-I (in words) [1]: inactive
Compound: Oc1cc(O)c2c(c1)O[C@H](c1ccc(O)c(O)c1)[C@@H](O)C2 [(+)Catechin]

activity against Glo-I (in words) [1]: inactive
Compound: Oc1cc(O)c2c(c1)O[C@H](c1ccc(O)c(O)c1)[C@H](O)C2 [(-)Epicatechin]

activity against Glo-I (in words) [1]: ineffective
Compound: NC(CO)C(=O)NNCc1ccc(O)c(O)c1O (stereo not shown) [Benserazide, reference compound]

inhibition at 3.125 µM [1, 16]: 15.4%
inhibition at 3.125 µM [1, 17]: 6.7%
inhibition at 3.125 µM [1, 18]: 7.9%
inhibition at 6.25 µM [1, 16]: 14.4%
inhibition at 6.25 µM [1, 17]: 9.01%
inhibition at 6.25 µM [1, 18]: 9.06%
inhibition at 12.5 µM [1, 16]: 25.3%
inhibition at 12.5 µM [1, 17]: 20.9%
inhibition at 12.5 µM [1, 18]: 12%
inhibition at 25 µM [1, 16]: 35.3%
inhibition at 25 µM [1, 17]: 29.6%
inhibition at 25 µM [1, 18]: 27.5%
inhibition at 50 µM [1, 16]: 55.6%
inhibition at 50 µM [1, 17]: 56%
inhibition at 50 µM [1, 18]: 53.5%
Maximum (descriptive statistics of enzyme inhibition) ([1]; highest mean inhibition over the tested concentrations, in % (unit assumed)): 55.00
IC50 ([1]; human recombinant Glo-I, triplicates, read-out: IC50 µM ± SD): 44.3 ± 18.6 µM
Minimum (descriptive statistics of enzyme inhibition) ([1]; lowest mean inhibition over the tested concentrations, in % (unit assumed)): 10.00
Compound: O=C(/C=C/c1ccc(O)c(O)c1)O[C@H]1[C@H](O)[C@@H](O)[C@H](OCCc2ccc(O)c(O)c2)O[C@@H]1CO [Calceolarioside A]
IC50 [2]: 45600 ± 3460 nM
IC50 at 72 h [3]: > 200000 nM
IC50 [4]: 899000 ± 179000 nM
IC50 [5]: 208000 ± 34800 nM

activity against Glo-I (in words) [1]: loss of activity
Compound: CCN(CC)C(=O)/C(C#N)=C/c1cc(O)c(O)c([N+](=O)[O-])c1 [Entacapone, reference compound]

activity against Glo-I (in words) [1]: ineffective
Compound: Oc1ccc(CC2NCCc3cc(O)c(O)cc32)cc1 (stereo not shown) [Higenamine]

IC50 [15]: 20 nM
Compound: COc1ccc2c(c1)c(CC(=O)O)c(C)n2C(=O)c1ccc(Cl)cc1 [Indomethacin]

activity against Glo-I (in words) [1]: inactive
Compound: O=C(/C=C/c1ccc(O)c(O)c1)O[C@@H]1C[C@@](OC(=O)/C=C/c2ccc(O)c(O)c2)(C(=O)O)C[C@@H](O)[C@@H]1O [cynarine]
